These results are taken from publication PMC7766155, “Improved Stability and Activity of a Marine Peptide-N6NH2 against Edwardsiella tarda and Its Preliminary Application in Fish” (Marine Drugs, 2020).

The structures appear in SMILES notation. Values after ≈ are worked out from the molar mass of the structure shown. Like-named read-outs stand apart in the source and are kept apart here. Where a SMILES comes first, the peptide text is derived from it. Bridges are numbered along the chain shown (N, C = ends).

Series [1] concerns E. tarda. In kind it is cell-based, Edwardsiella tarda. The procedure: (§1) All tests were conducted in triplicate.
In a further series the test system is Staphylococcus hyicus. The experiment in a line: microbe, parasite or virus in culture. In kind it is cell-based. As to the method: as §1
Series [2] is described as follows: LPS binding, BODIPY-TR-cadaverine displacement. As to conditions: 0.5 µM LPS, 5 μM BC, Tris buffer pH 7.4; 0.049 μM to 50 μM; excitation/emission 580/620 nm. Also noted: species or system E. coli.
Series [3] relates to E. tarda. The experiment in a line: pH stability (residual antibacterial activity, inhibition zone). The class given is physicochemical, Edwardsiella tarda. The note with it: pH values of 2–10, 3 h incubation; N6 128 μg/mL, norfloxacin 10 μg/mL; inhibition zone method vs E. tarda. The procedure:
(§2) To evaluate the thermal stability of peptides, N6 and N6NH2 were incubated for 1 h at 4, 20, 40, 60, 80 and 100 °C. To measure the pH stability, peptides were incubated for 3 h in 100 mM glycine-HCl buffer (pH 2.0), sodium acetate buffer (pH 4.0), sodium phosphate buffer (pH 6.0), Tris-HCl buffer (pH 8.0) or glycine-NaOH buffer (pH 10.0). In addition, peptides were incubated for 4 h at 37 °C in pepsin (3,000 U/mg, pH 2.0) and trypsin (250 U/mg, pH 8.0) (10:1, w/w) solutions, respectively. […] After treatment, 30 μL of solutions were taken out to determine the antibacterial activity of peptides against E. tarda by the inhibition zone method. The untreated peptides were used as the control. All tests were conducted in triplicate.

The test system of series [4] is E. tarda. The experiment in a line: Thermal stability (residual antibacterial activity, inhibition zone). In kind it is physicochemical, Edwardsiella tarda. As to conditions: incubated 1 h at 100 °C; N6 128 μg/mL; inhibition zone method vs untreated peptide; triplicate. As to the method: as §2
Setting [5] is: broth microdilution, MHB, 1 × 10^5 CFU/mL, 37 °C 18–24 h, n = 3, some N6 data from ref 19.

Usually MBC stands for the smallest concentration meeting the test's criterion for killing. For the compound `CC(C)[C@@H]1NC(=O)CNC(=O)[C@H](CC(N)=O)NC(=O)[C@H](CCCNC(=N)N)NC(=O)[C@H](Cc2ccc(O)cc2)NC(=O)[C@H](C(C)C)NC(=O)[C@@H](NC(=O)[C@@H](NC(=O)[C@H](CC(N)=O)NC(=O)[C@H](Cc2c[nH]c3ccccc23)NC(=O)[C@H](C)NC(=O)[C@H](Cc2ccccc2)NC(=O)CN)C(C)C)CSSC[C@@H](C(=O)N[C@@H](Cc2c[nH]cn2)C(=O)N[C@@H](CCCNC(=N)N)C(=O)N[C@@H](CCCNC(=N)N)C(=O)N[C@@H](C)C(=O)N[C@@H](CC(N)=O)C(=O)O)NC(=O)[C@H](C(C)C)NC(=O)[C@H](CCCNC(=N)N)NC1=O` [Peptide N6] (H-GFAWNVCVYRNGVRVCHRRAN-OH; disulfide 7-16; N-terminus assumed), the MIC was found to be 0.8 µM against S. typhimurium ATCC14028 (ATCC14028); 2 µg/mL against S. typhimurium ATCC14028 (setting [5]); 0.1 µM against S. aureus ATCC25923 (ATCC25923); 0.25 µg/mL with S. aureus ATCC25923 (setting [5]); 1.62 µM in the series on S. aureus ATCC546 (ATCC546); 4 µg/mL in the series on S. aureus ATCC546 (setting [5]). The MIC in the series on Staphylococcus hyicus is 16 to 64 µg/mL; in the series on E. coli CVCC25922 (CVCC25922) it was 0.1 µM; against E. coli CVCC25922 (setting [5]), 0.25 µg/mL; in the series on Escherichia coli CVCC195 (CVCC195) it was 0.2 µM; with Escherichia coli CVCC195 (setting [5]) it was 0.5 µg/mL. In the series with E. tarda [1], this compound showed an MBC of 12.8 µg/mL (≈ 5.17 µM). The “binding to LPS (displacement of BC probe)” value in [2] is “potent LPS-binding affinity”. In addition, the “antibacterial activity at different pH values” in the series with E. tarda [3] is “strong antibacterial activity”. In the series on E. tarda [4], the “decrease of antimicrobial activity against E. tarda after heating” value turned out to be 6.7%.
